Laboratory results from patent publication US5610303A, “Arylamino pyrimidine compound” (Ube Industries, Ltd., priority 1992, dated 1997).

How the values were obtained:
Format in all cases: biochemical
[1] = biological target: T1, acetylcholinesterase (Rattus norvegicus, UniProt P37136); assay: Acetylcholinesterase-inhibiting activity (Test example 1; crude synaptosome fraction of rat cerebrum, modified Ellman method)
T1 construct: a crude synaptosome fraction of a rat cerebrum was used; from tissue; host or cells: rat cerebrum, crude synaptosome fraction
Description: Acetylcholinesterase-inhibiting activity
As an enzyme source, a crude synaptosome fraction of a rat cerebrum was used.
That is, to the crude synaptosome fraction of the rat cerebrum suitably diluted with a 0.1M phosphate buffer were added each compound to be tested, 5,5'-dithiobis(2-nitrobenzoic acid) (hereinafter referred to as DTNB) and acetylthiocholine as a substrate, and the mixture was incubated at 25° C. for a predetermined time.
(§1) Enzyme activity-inhibiting rates were calculated from absorbances in the presence of the compounds to be tested having various concentrations based on absorbances in the absence of the compounds to be tested, with absorbance when reaction was carried out in the absence of the substrate being defined as blank. IC50 values were calculated by Hill analysis.

[2] = biological target: T2, butyrylcholinesterase (Rattus norvegicus, UniProt Q9JKC1); assay: Butyrylcholinesterase-inhibiting activity (Test example 2; rat serum, modified Ellman method)
T2 construct: As an enzyme source, a rat serum was used; from tissue; host or cells: rat serum
Description: Butyrylcholinesterase-inhibiting activity
As an enzyme source, a rat serum was used.
The activity of butyrylcholinesterase was measured by a partially modified method of the above method of Ellman et. al. That is, to the rat serum suitably diluted with a 0.1M phosphate buffer were added each compound to be tested, DTNB and butyrylthiocholine as a substrate, and the mixture was incubated at 25° C. for a predetermined time.
as §1

[3] = biological target: T3, A type monoamine oxidase (Rattus norvegicus, UniProt P21396); assay: A type monoamine oxidase-inhibiting activity (Test example 3; rat cerebrum homogenate, 14C-5-HT substrate); conditions: 5-HT 200 μM, preincubated 37° C. 30 minutes, Hill analysis, read-out: IC50 value, Inhibition of A type monoamine oxidase
T3 construct: a rat cerebrum homogenized in a 0.1M phosphate buffer was used; from tissue; host or cells: rat cerebrum homogenate
T3 sequence (P21396 1-526): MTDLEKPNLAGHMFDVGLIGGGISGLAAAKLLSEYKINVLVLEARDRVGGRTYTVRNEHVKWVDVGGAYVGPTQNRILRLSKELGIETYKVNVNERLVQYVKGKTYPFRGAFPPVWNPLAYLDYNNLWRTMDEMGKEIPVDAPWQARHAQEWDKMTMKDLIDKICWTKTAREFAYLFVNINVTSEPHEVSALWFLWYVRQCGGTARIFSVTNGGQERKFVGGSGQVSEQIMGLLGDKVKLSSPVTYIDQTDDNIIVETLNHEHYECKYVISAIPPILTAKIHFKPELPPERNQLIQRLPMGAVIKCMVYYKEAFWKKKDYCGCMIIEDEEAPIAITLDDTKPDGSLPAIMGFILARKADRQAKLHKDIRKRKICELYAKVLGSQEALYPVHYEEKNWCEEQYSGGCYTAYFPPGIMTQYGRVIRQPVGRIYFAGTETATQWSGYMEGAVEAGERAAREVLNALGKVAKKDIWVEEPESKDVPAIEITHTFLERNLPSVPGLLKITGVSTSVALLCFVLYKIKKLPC
Description: (§2) A type and B type monoamine oxidase-inhibiting activity
(§3) As an enzyme source, a rat cerebrum homogenized in a 0.1M phosphate buffer was used.
(§4) That is, the rat cerebrum homogenate suitably diluted with a 0.1M phosphate buffer and each compound to be tested were preincubated at 37° C. for 30 minutes. […] After the mixture was separated into two layers by centrifugation, a part of the organic layer was mixed with liquid scintillation cocktail. Radioactivity extracted into the organic layer was measured by a liquid scintillation counter to calculate the enzyme activity.
as §1, with “Inhibiting” for “Enzyme activity-inhibiting”, “enzyme activities” for “absorbances”, “homogenate” for “substrate”

[4] = biological target: T4, B type monoamine oxidase (Rattus norvegicus, UniProt P19643); assay: B type monoamine oxidase-inhibiting activity (Test example 3; rat cerebrum homogenate, 14C-β-PEA substrate); conditions: β-PEA 20 μM, preincubated 37° C. 30 minutes, Hill analysis, read-out: IC50 value, Inhibition of B type monoamine oxidase
T4 construct: a rat cerebrum homogenized in a 0.1M phosphate buffer was used; from tissue; host or cells: rat cerebrum homogenate
T4 sequence (P19643 1-520): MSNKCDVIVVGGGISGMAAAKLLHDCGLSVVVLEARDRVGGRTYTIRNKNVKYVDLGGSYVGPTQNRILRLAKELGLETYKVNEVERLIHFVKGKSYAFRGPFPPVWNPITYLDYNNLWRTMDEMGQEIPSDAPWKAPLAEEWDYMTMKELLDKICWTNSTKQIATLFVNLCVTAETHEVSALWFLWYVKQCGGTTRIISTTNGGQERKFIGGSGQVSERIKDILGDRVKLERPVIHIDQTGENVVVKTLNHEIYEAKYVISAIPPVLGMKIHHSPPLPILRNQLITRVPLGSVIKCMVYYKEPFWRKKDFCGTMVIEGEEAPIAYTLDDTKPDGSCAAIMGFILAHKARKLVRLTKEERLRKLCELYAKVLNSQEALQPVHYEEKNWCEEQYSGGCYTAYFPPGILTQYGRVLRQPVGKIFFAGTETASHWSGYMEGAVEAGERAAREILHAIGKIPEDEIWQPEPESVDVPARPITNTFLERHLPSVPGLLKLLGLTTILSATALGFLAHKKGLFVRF
Description: as §2, §3, §4
as §1, with “Inhibiting” for “Enzyme activity-inhibiting”, “enzyme activities” for “absorbances”, “homogenate” for “substrate”

T2 sequence (Q9JKC1 24-597): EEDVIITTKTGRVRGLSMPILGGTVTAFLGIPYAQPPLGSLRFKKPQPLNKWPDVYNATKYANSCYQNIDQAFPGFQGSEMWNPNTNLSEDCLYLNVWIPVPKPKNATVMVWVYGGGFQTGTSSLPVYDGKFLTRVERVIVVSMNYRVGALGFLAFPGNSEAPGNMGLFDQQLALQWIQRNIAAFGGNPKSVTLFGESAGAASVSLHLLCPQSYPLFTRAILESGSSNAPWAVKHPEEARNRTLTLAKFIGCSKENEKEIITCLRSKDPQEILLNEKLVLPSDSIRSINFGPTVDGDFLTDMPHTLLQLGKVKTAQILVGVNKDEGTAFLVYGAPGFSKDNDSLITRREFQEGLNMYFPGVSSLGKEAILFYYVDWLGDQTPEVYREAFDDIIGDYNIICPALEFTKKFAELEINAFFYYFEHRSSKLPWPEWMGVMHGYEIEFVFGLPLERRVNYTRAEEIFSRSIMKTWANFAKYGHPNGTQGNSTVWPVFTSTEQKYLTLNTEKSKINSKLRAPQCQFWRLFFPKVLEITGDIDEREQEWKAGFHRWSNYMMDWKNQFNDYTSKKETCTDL
T1 sequence (P37136 32-614): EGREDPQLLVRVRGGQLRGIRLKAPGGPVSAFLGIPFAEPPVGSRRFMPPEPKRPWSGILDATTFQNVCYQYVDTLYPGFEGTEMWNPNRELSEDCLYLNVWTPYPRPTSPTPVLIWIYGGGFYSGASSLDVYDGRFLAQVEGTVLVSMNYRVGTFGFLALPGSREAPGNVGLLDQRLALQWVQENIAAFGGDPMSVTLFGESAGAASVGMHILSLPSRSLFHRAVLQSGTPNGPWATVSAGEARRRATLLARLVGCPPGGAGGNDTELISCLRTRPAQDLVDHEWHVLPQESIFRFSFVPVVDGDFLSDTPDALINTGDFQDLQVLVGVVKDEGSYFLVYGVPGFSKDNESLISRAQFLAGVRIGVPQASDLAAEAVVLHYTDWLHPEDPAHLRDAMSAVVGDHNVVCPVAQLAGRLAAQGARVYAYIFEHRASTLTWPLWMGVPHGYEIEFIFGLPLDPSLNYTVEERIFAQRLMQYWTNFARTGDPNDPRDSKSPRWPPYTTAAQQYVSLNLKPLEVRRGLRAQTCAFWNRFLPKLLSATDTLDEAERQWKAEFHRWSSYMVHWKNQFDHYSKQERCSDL

Row | Compound | IC50 [1] | IC50 [2] | IC50 [3] | IC50 [4]
1 | Cc1cncnc1Nc1ccc(C(=O)CC2CCN(Cc3cccs3)CC2)cc1 [Example 88, N-(5-methylpyrimidin-4-yl)-4-{[1-(2-thienylmethyl)piperidin-4-yl]acetyl}aniline] | 330 nM | > 10000 nM | 250 nM | 2100 nM
2 | O=C(CCC1CCN(Cc2ccccc2)CC1)c1ccc(Nc2ncnc3c2CCC3)cc1 [Example 8, N-(5,6-dihydro-7H-cyclopenta[d]pyrimidin-4-yl)-4-[3(1-benzylpiperidin-4-yl)propanoyl]aniline. 2HCl] | 2 nM | > 10000 nM | 85 nM | > 10000 nM
3 | O=C1c2ccc(Nc3ncnc4c3CCC4)cc2CC1CC1CCN(Cc2ccccc2)CC1 (stereo not drawn) [Example 22, 4-[1-Oxo-2-(1-benzylpiperidin-4-yl)methylindan-5-yl]amino-5,6-dihydro-7H-cyclopenta[d]pyrimidine] | 7.3 nM | > 10000 nM | 810 nM | > 10000 nM
4 | O=C(CC1CCN(Cc2cccs2)CC1)c1ccc(Nc2ncnc3c2CCC3)cc1 [Example 87, N-(5,6-dihydro-7H-cyclopenta-[d]pyrimidin-4-yl)-4-{[1-(2-thienylmethyl)piperidin-4-yl]-acetyl}aniline] | 270 nM | > 10000 nM | 35 nM | > 10000 nM
5 | N#Cc1ccc(Nc2ncnc3c2CCC3)cc1 [Compound B, 4-(4-cyanoanilino)-5,6-dihydro-7H-cyclopenta[d]pyrimidine, reference compound] | > 10000 nM | > 10000 nM | 160 nM | > 10000 nM
6 | O=C1C(=CC2CCN(Cc3ccccc3)CC2)Cc2cc(Nc3ncnc4c3CCC4)ccc21 [Example 21, 4-[1-Oxo-2-(1-benzylpiperidin-4-yl)methyleneindan-5-yl]amino-5,6-dihydro-7H-cyclopenta[d]pyrimidine] | 20 nM | > 10000 nM | 600 nM | > 10000 nM
7 | O=C(/C=C/C1CCN(Cc2ccccc2)CC1)c1ccc(Nc2ncnc3c2CCC3)cc1 [Example 6, (E)-N-(5,6-dihydro-7H-cyclopenta[d]pyrimidin-4-yl)-4-[3-(1-benzylpiperidin-4-yl)propenoyl]aniline] | 3.1 nM | > 10000 nM | 220 nM | > 10000 nM
8 | O=C(/C=C/C1CCN(Cc2ccccc2)CC1)c1ccc(Nc2ncnc3c2CCCC3)cc1 [Example 9, (E)-N-(5,6,7,8-tetrahydroquinazolin-4-yl)-4-[3-(1-benzylpiperidin-4-yl)propenoyl]aniline] | 1.4 nM | > 10000 nM | 1400 nM | > 10000 nM
9 | O=C(CCC1CCN(Cc2ccccc2)CC1)c1ccc(Nc2ncnc3c2CCCC3)cc1 [Example 10, N-(5,6,7,8-tetrahydroquinazolin-4-yl)-4-[3-(1-benzyl-piperidin-4-yl)propanoyl]aniline] | 1.1 nM | > 10000 nM | 320 nM | > 10000 nM
10 | Cc1ncnc(Nc2ccc(C(=O)CCC3CCN(Cc4ccccc4)CC3)cc2)c1C [Example 2, N-(5,6-dimethylpyrimidin-4-yl)-4-[3-(1-benzylpiperidin-4-yl)propanoyl]aniline] | 3.6 nM | > 10000 nM | 890 nM | > 10000 nM
11 | O=C(CCC1CCN(Cc2ccccn2)CC1)c1ccc(Nc2ncnc3c2CCC3)cc1 [Example 53, N-(5,6-dihydro-7H-cyclopenta-[d]pyrimidin-4-yl)-4-{3-[1-(2-pyridylmethyl)piperidin-4-yl]-propanoyl}aniline] | 17 nM | > 10000 nM | 85 nM | > 10000 nM
12 | O=C(CC1CCN(Cc2ccccc2)CC1)c1ccc(Nc2ncnc3c2CCC3)cc1 [Example 26, N-(5,6-dihydro-7H-cyclopenta[d]pyrimidin-4-yl)-4-[(1-benzylpiperidin-4-yl)acetyl]aniline] | 150 nM | > 10000 nM | 56 nM | > 10000 nM
13 | Cc1cncnc1Nc1ccc(C(=O)CC2CCN(Cc3ccccc3)CC2)cc1 [Example 25, N-(5-methylpyrimidin-4-yl)-4-[(1-benzylpiperidin-4-yl)acetyl]aniline] | 250 nM | > 10000 nM | 340 nM | 6800 nM
14 | CCc1cncnc1Nc1ccc(C(=O)CC2CCN(Cc3ccccc3)CC2)cc1 [Example 93, N-(5-ethylpyrimidin-4-yl)-4-[(1-benzylpiperidin-4-yl)-acetyl]aniline] | 200 nM | > 10000 nM | 420 nM | 7200 nM
15 | Cc1ncnc(Nc2ccc(C(=O)/C=C/C3CCN(Cc4ccccc4)CC3)cc2)c1C [Example 1, (E)-N-(5,6-dimethylpyrimidin-4-yl)-4-[3-(1-benzyl-piperidin-4-yl)propenoyl]aniline] | 3.3 nM | > 10000 nM | 1600 nM | > 10000 nM
